Source: ChEMBL document CHEMBL4334553, “Discovery of Hydroxyamidine Based Inhibitors of IDO1 for Cancer Immunotherapy with Reduced Potential for Glucuronidation” (ACS Med Chem Lett, 2020)

Tests used:
[1] = target: T1, Indoleamine 2,3-dioxygenase 1 (Homo sapiens, UniProt P14902); test: Inhibition of IDO1 in interferon-gamma-induced human SKOV3 cells assessed as N-formylkynurenine formation using L-tryptophan as substrate measured after 24 hrs by fluorescence assay
[2] = target: T1, Indoleamine 2,3-dioxygenase 1; test: Inhibition of human N-terminal GST-tagged IDO1 expressed in Escherichia coli Rosetta(DE3) pLysS using L-tryptophan as substrate measured after 1 hr by fluorescence assay
UGT1A9 = target: T2, UGT1A9 (Homo sapiens, UniProt O60656); test: Stability assessed as recombinant UGT1A9 (unknown origin) mediated compound glucuronidation by measuring half-life at 1 uM incubated in water bath by shaking at 37 degree C measured upto 60 mins in presence of UDPGA by LC-MS/MS analysis; assay type: ADME
T2 sequence (O60656 whole entry): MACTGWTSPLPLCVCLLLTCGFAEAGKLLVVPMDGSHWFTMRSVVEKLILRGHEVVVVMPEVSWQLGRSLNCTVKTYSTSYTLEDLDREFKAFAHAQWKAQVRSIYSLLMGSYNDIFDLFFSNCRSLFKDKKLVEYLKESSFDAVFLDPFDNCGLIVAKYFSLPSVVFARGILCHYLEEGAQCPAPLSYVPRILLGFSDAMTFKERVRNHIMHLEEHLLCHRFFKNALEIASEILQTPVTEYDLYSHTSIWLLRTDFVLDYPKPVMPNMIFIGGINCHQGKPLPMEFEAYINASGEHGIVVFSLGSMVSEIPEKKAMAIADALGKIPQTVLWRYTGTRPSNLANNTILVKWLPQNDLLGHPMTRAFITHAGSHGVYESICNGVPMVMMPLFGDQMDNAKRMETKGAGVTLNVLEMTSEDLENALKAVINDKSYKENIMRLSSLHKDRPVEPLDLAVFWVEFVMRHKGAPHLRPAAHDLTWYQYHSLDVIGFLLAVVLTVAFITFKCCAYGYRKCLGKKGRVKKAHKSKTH

[3] = Half life in mouse liver microsomes; assay type: ADME, Microsome
[4] = Half life in human liver microsomes; assay type: ADME, Microsome

T1 sequence (P14902 whole entry): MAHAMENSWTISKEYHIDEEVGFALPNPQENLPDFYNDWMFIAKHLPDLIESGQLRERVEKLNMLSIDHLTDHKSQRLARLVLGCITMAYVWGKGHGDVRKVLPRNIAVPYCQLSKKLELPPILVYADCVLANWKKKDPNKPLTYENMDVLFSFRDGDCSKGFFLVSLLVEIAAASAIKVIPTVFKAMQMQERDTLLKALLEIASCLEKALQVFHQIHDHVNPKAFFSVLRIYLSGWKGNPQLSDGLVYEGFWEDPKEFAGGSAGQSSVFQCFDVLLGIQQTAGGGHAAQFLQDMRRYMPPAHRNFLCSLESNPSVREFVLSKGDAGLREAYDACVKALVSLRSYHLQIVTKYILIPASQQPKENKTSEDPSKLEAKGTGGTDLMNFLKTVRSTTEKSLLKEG

Row | Structure (SMILES) | IC50 [1] [nM] | IC50 [2] [nM] | half-life at 1 µM (UGT1A9) [h] | half-life [3] [h] | half-life [4] [h]
1 | CS(=O)(=O)CC(=O)NCCSc1nonc1/C(=N/O)Nc1ccc(F)c(C(F)F)c1 | 14 | 100 | 1.59 | 0.765 | 1.27
2 | COc1nonc1/C(=N/O)Nc1ccc(F)c(Br)c1 | 39 | 230 | – | – | –
3 | N#Cc1cc(N/C(=N\O)c2nonc2SCCNC(=O)CS(N)(=O)=O)ccc1F | 39 | 150 | > 3 | 2.38 | > 3
4 | NS(=O)(=O)CC(=O)NCCSc1nonc1/C(=N/O)Nc1cccc(C(F)F)c1 | 17 | 130 | > 3 | 1.5 | > 3
5 | O=C(NCCSc1nonc1/C(=N/O)Nc1ccc(F)c(C(F)F)c1)C1CS(=O)(=O)C1 | 13 | 70 | > 3 | 0.245 | 1.28
6 | C[C@@H](CSc1nonc1/C(=N/O)Nc1ccc(F)c(Br)c1)NC(=O)CS(N)(=O)=O | 19 | 93 | > 3 | 0.398 | 1.57
7 | C[C@H](CSc1nonc1/C(=N/O)Nc1ccc(F)c(Br)c1)NC(=O)CS(N)(=O)=O | 12 | 110 | 1.33 | 0.537 | 0.77
8 | N#Cc1cccc(N/C(=N\O)c2nonc2SCCNC(=O)CS(N)(=O)=O)c1 | 44 | 240 | > 3 | > 3 | > 3
9 | NS(=O)(=O)CC(=O)NCCSc1nonc1/C(=N/O)Nc1ccc(F)c(Br)c1 | 12 | 71 | 0.758 | 1.12 | 2.37

The next molecules have a lower IC50 [1] than those just listed; values first:

Row | IC50 [1] [nM] | IC50 [2] [nM] | half-life at 1 µM (UGT1A9) [h] | half-life [3] [h] | half-life [4] [h] | Structure (SMILES)
10 | 9.3 | 270 | 0.357 | 0.29 | 1.73 | CS(=O)(=O)NCCSc1nonc1/C(=N/O)Nc1ccc(F)c(Br)c1
11 | 8.1 | 30 | 0.955 | 0.918 | > 3 | NS(=O)(=O)CC(=O)NCCSc1nonc1/C(=N/O)Nc1cccc(Br)c1
12 | 6.5 | 180 | 1.73 | 0.278 | 2.77 | N#CCC(=O)NCCSc1nonc1/C(=N/O)Nc1ccc(F)c(C(F)F)c1
13 | 2.8 | 130 | 0.183 | – | – | NS(=O)(=O)NCCSc1nonc1/C(=N/O)Nc1ccc(F)c(Br)c1
